In patent US10280145B2 (Toray Industries, Inc., priority 2015, dated 2019):

Each compound was assayed against T1, intracellular domain of DDR1 (Homo sapiens, UniProt Q08345) (assay: Evaluation of DDR1 inhibition activity with HTRF KinEASE-TK kit). Details: DDR1 intracellular domain 5 ng/μL, ATP 25 μm/L, TK Substrate-biotin 1000 nmol/L, room temperature, one hour.
T1 construct: the intracellular domain of DDR1 (in a final concentration of 5 ng/μL) (Carna Biosciences, Inc.); purchased Carna Biosciences, Inc
Assay type: biochemical
Description: The DDR1 inhibition activity in the compounds of Examples 1 to 80 was evaluated with HTRF® KinEASE-TK kit (Cisbio Bioassays).
Each test substance was dissolved in dimethyl sulfoxide and then used for the evaluation as described below. Moreover, each of test substances and reagents was diluted in the kinase buffer (Cisbio Bioassays) prepared by adding thereto MgCl2, MnCl2, DTT, and the Supplemental Enzyme buffer (Cisbio Bioassays) to concentrations of 5 mmol/L, 0.5 mmol/L, 0.25 mmol/L, and 50 nmol/L, respectively, and then used. Each test substance (in DMSO in a final concentration of 1%), the intracellular domain of DDR1 (in a final concentration of 5 ng/μL) (Carna Biosciences, Inc.), the phosphate donor ATP (in final concentration of 25 μm/L) (Sigma), and the substrate TK Substrate-biotin (in a final concentration of 1000 nmol/L) (Cisbio Bioassays) were added to a 384-well black plate (Corning) and allowed to react at room temperature for one hour. After completion of the reaction, the TK Antibody-Cryptate (Cisbio Bioassays) and the Streptavidin-XL665 (Cisbio Bioassays) were added thereto and allowed to react at room temperature for one hour. In addition, the plate was provided with a well to which a test substance was not added, and with a well to which a test substance and the intracellular domain of DDR1 were […].
The fluorescence intensity in each well was measured using a multi-label counter (Envision, PerkinElmer; excitation wavelength: 320 nm, measurement wavelength: 665 nm and 620 nm) to calculate a ratio (the fluorescence intensity at 665 nm/the fluorescence intensity at 620 nm). The inhibition rate (%) of a test substance at each concentration was calculated based on the formula below: Inhibition rate (%)=([the ratio obtained from the well containing no test substance]−[the ratio from a well containing a test substance])/([the ratio obtained from the well containing no test substance]−[the ratio obtained from the well containing no intracellular domain of DDR1 and no test substance])×100.
The calculated inhibition rates were fitted to a sigmoidal dose-response curve by regression analysis using the Prism 5.04 (GraphPad Software, Inc.) to calculate the IC50 value of the test substance.

T1 sequence (Q08345 439-913 limits assumed): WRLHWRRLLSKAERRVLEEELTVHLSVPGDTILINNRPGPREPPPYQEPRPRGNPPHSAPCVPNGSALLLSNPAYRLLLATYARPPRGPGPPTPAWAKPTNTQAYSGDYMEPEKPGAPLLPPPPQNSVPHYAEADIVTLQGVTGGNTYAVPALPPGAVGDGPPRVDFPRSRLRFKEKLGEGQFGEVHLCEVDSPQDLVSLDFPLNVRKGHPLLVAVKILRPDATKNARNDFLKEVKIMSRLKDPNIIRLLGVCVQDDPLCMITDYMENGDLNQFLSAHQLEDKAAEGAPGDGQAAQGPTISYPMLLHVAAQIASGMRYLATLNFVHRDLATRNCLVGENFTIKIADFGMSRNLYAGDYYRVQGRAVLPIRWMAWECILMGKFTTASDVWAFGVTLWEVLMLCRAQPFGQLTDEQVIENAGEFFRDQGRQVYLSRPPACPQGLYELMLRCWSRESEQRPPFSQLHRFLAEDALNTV

Row | IC50 [nM] | Compound
1 | 10 | O=C(Nc1cc(C(F)(F)F)ccc1OC1CCNCC1)N[C@H]1CC[C@H](OCc2ccncc2)CC1 [Example 32, 1-(2-(piperidin-4-yloxy)-5-(trifluoromethyl)phenyl)-3-(trans-4-(pyridin-4-ylmethoxy)cyclohexyl)urea]
2 | 28 | CC(=O)N1CC(Oc2ccc(C(F)(F)F)cc2NC(=O)N[C@H]2CC[C@H](OCc3ccncc3)CC2)C1 [Example 33, 1-(2-((1-acetylazetidin-3-yl)oxy)-5-(trifluoromethyl)phenyl)-3-(trans-4-(pyridin-4-ylmethoxy)cyclohexyl)urea]
3 | 51 | CC(=O)N1CCC(Oc2ccc(C(F)(F)F)cc2NC(=O)N[C@H]2CC[C@H](OCc3ccncc3)CC2)CC1 [Example 34, 1-(2-((1-acetylpiperidin-4-yl)oxy)-5-(trifluoromethyl)phenyl)-3-(trans-4-(pyridin-4-ylmethoxy)cyclohexyl)urea]
4 | 88.6 | O=C(Nc1cc(C(F)(F)F)ccc1O[C@@H]1CCNC1)N[C@H]1CC[C@H](OCc2ccncc2)CC1 [Example 35, 1-(trans-4-(pyridin-4-ylmethoxy)cyclohexyl)-3-(2-((R)-pyrrolidin-3-yloxy)-5-(trifluoromethyl)phenyl)urea]
5 | 140 | O=C(Nc1cc(C(F)(F)F)ccc1O[C@H]1CCNC1)N[C@H]1CC[C@H](OCc2ccncc2)CC1 [Example 36, 1-(trans-4-(pyridin-4-ylmethoxy)cyclohexyl)-3-(2-((S)-pyrrolidin-3-yloxy)-5-(trifluoromethyl)phenyl)urea]
6 | 149 | COc1ccc(C(F)(F)F)cc1NC(=O)N[C@H]1CC[C@H](Oc2ccnc(-c3cccnc3)n2)CC1 [Example 37, 1-(2-methoxy-5-(trifluoromethyl)phenyl)-3-(trans-4-((2-(pyridin-3-yl)pyrimidin-4-yl)oxy)cyclohexyl)urea]
7 | 61 | O=C(Nc1cc(C(F)(F)F)ccc1OC1COC1)N[C@H]1CC[C@H](Oc2ccnc(-c3cccnc3)n2)CC1 [Example 38, 1-(2-(oxetan-3-yloxy)-5-(trifluoromethyl)phenyl)-3-(trans-4-((2-(pyridin-3-yl)pyrimidin-4-yl)oxy)cyclohexyl)urea]
8 | 236 | COc1ccc(OC(F)(F)F)cc1NC(=O)N[C@H]1CC[C@H](Oc2ccnc(-c3cccnc3)n2)CC1 [Example 39, 1-(2-methoxy-5-(trifluoromethoxy)phenyl)-3-(trans-4-((2-(pyridin-3-yl)pyrimidin-4-yl)oxy)cyclohexyl)urea]
9 | 98 | COc1ccc(C(F)(F)F)cc1NC(=O)N[C@H]1CC[C@H](Oc2nccc(-c3cccnc3)n2)CC1 [Example 40, 1-(2-methoxy-5-(trifluoromethyl)phenyl)-3-(trans-4-((4-(pyridin-3-yl)pyrimidin-2-yl)oxy)cyclohexyl)urea]
10 | 45.6 | O=C(Nc1cc(C(F)(F)F)ccc1OC1COC1)N[C@H]1CC[C@H](Oc2nccc(-c3cccnc3)n2)CC1 [Example 41, 1-(2-(oxetan-3-yloxy)-5-(trifluoromethyl)phenyl)-3-(trans-4-((4-(pyridin-3-yl)pyrimidin-2-yl)oxy)cyclohexyl)urea]
11 | 27.2 | CNc1cc(O[C@H]2CC[C@H](NC(=O)Nc3cc(C(F)(F)F)ccc3OC3CNC3)CC2)ncn1 [Example 42]
12 | 31.3 | CNc1cc(O[C@H]2CC[C@H](NC(=O)Nc3cc(C(F)(F)F)ccc3OC3CCNCC3)CC2)ncn1 [Example 43]
13 | 128 | O=C(Nc1cc(OC(F)(F)F)ccc1OC1COC1)N[C@H]1CC[C@H](Oc2ccnc(N3CCOCC3)n2)CC1 [Example 44, 1-(trans-4-((2-morpholinopyrimidin-4-yl)oxy)cyclohexyl)-3-(2-(oxetan-3-yloxy)-5-(trifluoromethoxy)phenyl)urea]
14 | 33.8 | COc1c(CO)cc(C(F)(F)F)cc1NC(=O)N[C@H]1CC[C@H](Oc2ccnc(-c3cccnc3)n2)CC1 [Example 45, 1-(3-(hydroxymethyl)-2-methoxy-5-(trifluoromethyl)phenyl)-3-(trans-4-((2-(pyridin-3-yl)pyrimidin-4-yl)oxy)cyclohexyl)urea]
15 | 531 | CCOc1ccc(C(F)(F)F)cc1NC(=O)N[C@H]1CC[C@H](Oc2ccnc(N3CCOCC3)n2)CC1 [Example 46, 1-(2-ethoxy-5-(trifluoromethyl)phenyl)-3-(trans-4-((2-morpholinopyrimidin-4-yl)oxy)cyclohexyl)urea]
16 | 56.6 | O=C(Nc1cc(C(F)(F)F)ccc1OC1COC1)N[C@H]1CC[C@H](Oc2ccnc(-c3ccncc3)n2)CC1 [Example 47, 1-(2-(oxetan-3-yloxy)-5-(trifluoromethyl)phenyl)-3-(trans-4-((2-(pyridin-4-yl)pyrimidin-4-yl)oxy)cyclohexyl)urea]
17 | 35.1 | COc1c(CO)cc(OC(F)(F)F)cc1NC(=O)N[C@H]1CC[C@H](Oc2ccnc(N3CCOCC3)n2)CC1 [Example 50, 1-(3-(hydroxymethyl)-2-methoxy-5-(trifluoromethoxy)phenyl)-3-(trans-4-((2-morpholinopyrimidin-4-yl)oxy)cyclohexyl)urea]
18 | 254 | O=C(Nc1ccc(CO)c(C(F)(F)F)c1)N[C@H]1CC[C@H](Oc2ccnc(N3CCOCC3)n2)CC1 [Example 53, 1-(4-(hydroxymethyl)-3-(trifluoromethyl)phenyl)-3-(trans-4-((2-morpholinopyrimidin-4-yl)oxy)cyclohexyl)urea]
19 | 95.1 | CNc1ccnc(O[C@H]2CC[C@H](NC(=O)Nc3cc(OC(F)(F)F)ccc3OC)CC2)n1 [Example 54, 1-(2-methoxy-5-(trifluoromethoxy)phenyl)-3-(trans-4-((4-(methylamino)pyrimidin-2-yl)oxy)cyclohexyl)urea]
20 | 55.8 | O=C(Nc1cc(C(F)(F)F)ccc1OC1COC1)N[C@H]1CC[C@H](OCc2ccncc2)CC1 [Example 56, 1-(2-(oxetan-3-yloxy)-5-(trifluoromethyl)phenyl)-3-(trans-4-(pyridin-4-ylmethoxy)cyclohexyl)urea]
21 | 653 | O=C(Nc1cc(C(F)(F)F)ccc1N1CCOCC1)N[C@H]1CC[C@H](Oc2ncccn2)CC1 [Example 57, 1-(2-morpholino-5-(trifluoromethyl)phenyl)-3-(trans-4-(pyrimidin-2-yloxy)cyclohexyl)urea]
22 | 528 | O=C(Nc1cc(C(F)(F)F)ccc1Cl)N[C@H]1CC[C@H](Oc2ncccn2)CC1 [Example 58, 1-(2-chloro-5-(trifluoromethyl)phenyl)-3-(trans-4-(pyrimidin-2-yloxy)cyclohexyl)urea]
23 | 335 | COc1ccc(OC(F)(F)F)cc1NC(=O)N[C@H]1CC[C@H](Oc2cc(N3CCOCC3)ncn2)CC1 [Example 59, 1-(2-methoxy-5-(trifluoromethoxy)phenyl)-3-(trans-4-((6-morpholinopyrimidin-4-yl)oxy)cyclohexyl)urea]
24 | 57.9 | COc1c(CO)cc(C(F)(F)F)cc1NC(=O)N[C@H]1CC[C@H](Oc2ccnc(NCCO)n2)CC1 [Example 61, 1-(trans-4-((2-((2-hydroxyethyl)amino)pyrimidin-4-yl)oxy)cyclohexyl)-3-(3-(hydroxymethyl)-2-methoxy-5-(trifluoromethyl)phenyl)urea]
25 | 138 | COc1ccc(OC(F)(F)F)cc1NC(=O)N[C@H]1CC[C@H](Oc2ccnc(NCCO)n2)CC1 [Example 62, 1-(trans-4-((2-((2-hydroxyethyl)amino)pyrimidin-4-yl)oxy)cyclohexyl)-3-(2-methoxy-5-(trifluoromethoxy)phenyl)urea]
26 | 46.7 | O=C(Nc1cc(C(F)(F)F)ccc1OC1COC1)N[C@H]1CC[C@H](Oc2ccnc(NCCO)n2)CC1 [Example 63, 1-(trans-4-((2-((2-hydroxyethyl)amino)pyrimidin-4-yl)oxy)cyclohexyl)-3-(2-(oxetan-3-yloxy)-5-(trifluoromethyl)phenyl)urea]
27 | 54.5 | CNc1nccc(O[C@H]2CC[C@H](NC(=O)Nc3cc(C(F)(F)F)ccc3OC3COC3)CC2)n1 [Example 64, 1-(trans-4-((2-(methylamino)pyrimidin-4-yl)oxy)cyclohexyl)-3-(2-(oxetan-3-yloxy)-5-(trifluoromethyl)phenyl)urea]
28 | 42.1 | CNc1nccc(O[C@H]2CC[C@H](NC(=O)Nc3cc(C(F)(F)F)cc(CO)c3OC)CC2)n1 [Example 65, 1-(3-(hydroxymethyl)-2-methoxy-5-(trifluoromethyl)phenyl)-3-(trans-4-((2-(methylamino)pyrimidin-4-yl)oxy)cyclohexyl)urea]
29 | 98.4 | O=C(Nc1cc(C(F)(F)F)ccc1OC1COC1)N[C@H]1CC[C@H](Oc2ccncn2)CC1 [Example 66, 1-(2-(oxetan-3-yloxy)-5-(trifluoromethyl)phenyl)-3-(trans-4-(pyrimidin-4-yloxy)cyclohexyl)urea]
